Laboratory results from article PMC6757289, “Design and Characterization of SGK3-PROTAC1, an Isoform Specific SGK3 Kinase PROTAC Degrader” (ACS Chemical Biology, 2019).
Where two headings read alike, the source gives them in different places.

Assays:
Assay in all cases: kinase profiling panel
Type in all cases: biochemical
DYRK1A = DYRK1A (Homo sapiens, UniProt Q13627); conditions: read-out: % Activity Remaining
Excerpt: (§1) Protein kinase profiling against a Dundee panel of 140 protein kinases was undertaken at the International Centre for Protein Kinase Profiling. The result for each kinase was presented as a mean kinase activity of the reaction taken in triplicate relative to a control sample treated with DMSO. Assay conditions and abbreviations are available at http://www.kinase-screen.mrc.ac.uk.

PKD1 = target: T1, PKD1 (Homo sapiens, UniProt Q15139); conditions: read-out: % Activity Remaining
T1 sequence (Q15139 1-912): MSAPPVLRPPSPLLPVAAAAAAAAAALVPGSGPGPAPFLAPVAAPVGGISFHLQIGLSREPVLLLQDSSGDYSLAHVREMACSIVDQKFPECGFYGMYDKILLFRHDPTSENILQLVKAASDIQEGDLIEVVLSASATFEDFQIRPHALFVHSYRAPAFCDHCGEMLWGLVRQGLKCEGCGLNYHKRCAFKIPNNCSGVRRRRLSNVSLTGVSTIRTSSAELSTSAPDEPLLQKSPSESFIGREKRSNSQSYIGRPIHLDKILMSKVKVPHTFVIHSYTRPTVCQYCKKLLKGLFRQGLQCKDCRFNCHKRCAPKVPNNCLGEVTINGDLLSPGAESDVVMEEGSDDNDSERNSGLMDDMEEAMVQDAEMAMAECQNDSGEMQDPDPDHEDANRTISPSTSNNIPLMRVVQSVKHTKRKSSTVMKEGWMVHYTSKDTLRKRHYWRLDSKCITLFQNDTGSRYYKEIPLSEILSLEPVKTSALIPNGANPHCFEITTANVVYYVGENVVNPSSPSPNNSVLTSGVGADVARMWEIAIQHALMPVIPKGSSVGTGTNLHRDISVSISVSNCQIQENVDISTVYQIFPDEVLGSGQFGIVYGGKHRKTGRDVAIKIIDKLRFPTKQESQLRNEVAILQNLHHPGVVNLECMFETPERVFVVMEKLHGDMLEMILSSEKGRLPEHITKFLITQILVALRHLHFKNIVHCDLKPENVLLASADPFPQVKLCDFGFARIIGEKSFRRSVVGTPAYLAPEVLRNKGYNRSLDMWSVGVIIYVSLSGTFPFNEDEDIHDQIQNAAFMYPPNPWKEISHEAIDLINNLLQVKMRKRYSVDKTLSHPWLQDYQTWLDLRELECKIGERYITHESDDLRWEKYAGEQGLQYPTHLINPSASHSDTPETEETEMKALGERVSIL
Excerpt: as §1

PRK2 = PRK2 (Homo sapiens, UniProt Q16513); conditions: read-out: % Activity Remaining
Excerpt: as §1

MKK1 = MKK1 (Homo sapiens, UniProt Q02750); conditions: read-out: % Activity Remaining
Chain of MKK1 (Q02750 whole entry): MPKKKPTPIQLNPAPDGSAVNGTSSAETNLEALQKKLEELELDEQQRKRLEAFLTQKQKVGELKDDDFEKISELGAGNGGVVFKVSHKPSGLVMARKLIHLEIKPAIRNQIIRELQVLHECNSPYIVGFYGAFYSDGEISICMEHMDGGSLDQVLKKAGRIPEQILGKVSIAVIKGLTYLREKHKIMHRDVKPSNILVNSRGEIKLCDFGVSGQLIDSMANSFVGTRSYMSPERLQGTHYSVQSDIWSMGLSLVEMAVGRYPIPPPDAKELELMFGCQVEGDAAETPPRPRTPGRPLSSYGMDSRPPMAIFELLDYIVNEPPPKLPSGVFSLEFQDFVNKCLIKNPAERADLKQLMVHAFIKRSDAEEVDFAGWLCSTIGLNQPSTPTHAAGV
Excerpt: as §1

ABL = ABL (Homo sapiens, UniProt P00519); conditions: read-out: % Activity Remaining
Chain of ABL (P00519 whole entry): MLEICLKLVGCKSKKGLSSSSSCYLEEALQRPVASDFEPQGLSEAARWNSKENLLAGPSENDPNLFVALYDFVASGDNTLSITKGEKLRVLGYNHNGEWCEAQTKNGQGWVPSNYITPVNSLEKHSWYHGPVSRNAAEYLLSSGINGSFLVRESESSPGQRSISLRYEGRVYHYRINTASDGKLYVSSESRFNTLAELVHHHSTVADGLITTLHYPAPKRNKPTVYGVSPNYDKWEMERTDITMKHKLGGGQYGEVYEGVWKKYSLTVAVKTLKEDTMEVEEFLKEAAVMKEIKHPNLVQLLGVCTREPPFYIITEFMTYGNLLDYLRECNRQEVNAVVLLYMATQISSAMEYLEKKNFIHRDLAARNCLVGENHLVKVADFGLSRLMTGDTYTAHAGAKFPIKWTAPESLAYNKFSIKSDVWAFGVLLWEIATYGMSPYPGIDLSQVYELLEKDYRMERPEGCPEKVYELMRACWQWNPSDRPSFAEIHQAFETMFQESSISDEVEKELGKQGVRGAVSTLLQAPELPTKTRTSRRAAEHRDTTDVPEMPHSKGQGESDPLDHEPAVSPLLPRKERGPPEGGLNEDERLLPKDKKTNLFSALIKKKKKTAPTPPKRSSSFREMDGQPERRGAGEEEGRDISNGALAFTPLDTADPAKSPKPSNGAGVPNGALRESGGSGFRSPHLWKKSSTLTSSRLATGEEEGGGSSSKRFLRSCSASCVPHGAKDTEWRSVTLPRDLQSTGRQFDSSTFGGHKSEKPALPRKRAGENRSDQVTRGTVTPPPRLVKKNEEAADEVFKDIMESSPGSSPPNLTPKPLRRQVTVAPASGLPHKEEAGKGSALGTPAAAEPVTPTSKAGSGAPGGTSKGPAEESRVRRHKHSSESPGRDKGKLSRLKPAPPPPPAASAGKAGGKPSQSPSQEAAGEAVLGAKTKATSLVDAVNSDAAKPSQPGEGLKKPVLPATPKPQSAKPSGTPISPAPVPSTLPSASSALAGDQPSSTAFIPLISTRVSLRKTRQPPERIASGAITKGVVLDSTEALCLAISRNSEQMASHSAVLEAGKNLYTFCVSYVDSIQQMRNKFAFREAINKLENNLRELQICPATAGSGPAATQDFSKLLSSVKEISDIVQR
Excerpt: as §1

SRPK1 = SRPK1 (Homo sapiens, UniProt Q96SB4); conditions: read-out: % Activity Remaining
Chain of SRPK1 (Q96SB4 whole entry): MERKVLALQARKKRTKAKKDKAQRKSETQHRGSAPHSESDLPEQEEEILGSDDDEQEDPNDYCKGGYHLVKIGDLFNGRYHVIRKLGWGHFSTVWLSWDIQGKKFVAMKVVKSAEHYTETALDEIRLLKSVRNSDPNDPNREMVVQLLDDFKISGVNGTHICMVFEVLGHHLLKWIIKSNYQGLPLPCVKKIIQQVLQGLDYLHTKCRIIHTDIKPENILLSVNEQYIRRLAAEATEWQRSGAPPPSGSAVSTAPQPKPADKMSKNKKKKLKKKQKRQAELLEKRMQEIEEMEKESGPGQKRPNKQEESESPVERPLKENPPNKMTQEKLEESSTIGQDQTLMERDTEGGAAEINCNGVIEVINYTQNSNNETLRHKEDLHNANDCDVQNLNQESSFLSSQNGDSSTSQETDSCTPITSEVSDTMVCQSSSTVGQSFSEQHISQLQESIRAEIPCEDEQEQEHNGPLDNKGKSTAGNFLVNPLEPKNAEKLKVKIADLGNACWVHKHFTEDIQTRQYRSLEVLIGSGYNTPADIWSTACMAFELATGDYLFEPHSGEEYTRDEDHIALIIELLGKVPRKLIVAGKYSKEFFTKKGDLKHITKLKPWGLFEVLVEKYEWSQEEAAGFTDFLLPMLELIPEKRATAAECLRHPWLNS
Excerpt: as §1

ERK8 = target: T2, ERK8 (Homo sapiens, UniProt Q8TD08); conditions: read-out: % Activity Remaining
T2 sequence (Q8TD08 1-544): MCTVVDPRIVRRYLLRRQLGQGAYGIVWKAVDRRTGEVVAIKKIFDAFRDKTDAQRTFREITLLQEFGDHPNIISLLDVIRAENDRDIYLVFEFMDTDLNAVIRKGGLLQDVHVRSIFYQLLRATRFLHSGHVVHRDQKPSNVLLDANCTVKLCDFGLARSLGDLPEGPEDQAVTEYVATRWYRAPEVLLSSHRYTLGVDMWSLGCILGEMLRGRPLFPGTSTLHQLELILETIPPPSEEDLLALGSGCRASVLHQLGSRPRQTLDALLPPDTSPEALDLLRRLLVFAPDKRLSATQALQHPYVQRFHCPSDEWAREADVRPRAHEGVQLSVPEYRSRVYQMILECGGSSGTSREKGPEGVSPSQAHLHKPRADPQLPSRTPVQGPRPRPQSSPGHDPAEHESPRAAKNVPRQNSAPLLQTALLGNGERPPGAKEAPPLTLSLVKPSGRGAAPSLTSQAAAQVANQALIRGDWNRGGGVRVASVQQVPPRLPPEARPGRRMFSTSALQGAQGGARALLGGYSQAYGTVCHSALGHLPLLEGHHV
Excerpt: as §1

MARK3 = MARK3 (Homo sapiens, UniProt P27448); conditions: read-out: % Activity Remaining
Chain of MARK3 (P27448 whole entry): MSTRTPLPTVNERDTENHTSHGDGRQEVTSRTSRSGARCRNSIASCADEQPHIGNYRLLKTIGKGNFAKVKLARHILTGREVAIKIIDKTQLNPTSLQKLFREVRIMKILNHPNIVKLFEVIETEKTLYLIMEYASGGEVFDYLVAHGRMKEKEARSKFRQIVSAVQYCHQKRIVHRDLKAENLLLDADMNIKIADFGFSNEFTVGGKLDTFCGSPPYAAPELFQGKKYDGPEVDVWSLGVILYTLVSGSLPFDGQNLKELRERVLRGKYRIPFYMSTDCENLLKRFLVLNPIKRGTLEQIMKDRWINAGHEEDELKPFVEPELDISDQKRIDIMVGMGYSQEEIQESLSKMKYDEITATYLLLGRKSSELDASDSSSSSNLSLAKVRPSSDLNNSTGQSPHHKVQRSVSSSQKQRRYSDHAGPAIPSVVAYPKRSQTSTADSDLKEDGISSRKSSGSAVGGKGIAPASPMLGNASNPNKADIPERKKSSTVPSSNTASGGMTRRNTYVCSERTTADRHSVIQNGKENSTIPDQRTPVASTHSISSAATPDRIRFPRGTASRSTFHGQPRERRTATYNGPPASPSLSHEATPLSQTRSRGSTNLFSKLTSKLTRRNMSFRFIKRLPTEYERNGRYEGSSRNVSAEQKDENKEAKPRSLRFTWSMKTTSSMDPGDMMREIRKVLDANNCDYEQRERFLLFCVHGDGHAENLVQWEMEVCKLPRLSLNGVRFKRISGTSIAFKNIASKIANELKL
Excerpt: as §1

IRAK4 = target: T3, IRAK4 (Homo sapiens, UniProt Q9NWZ3); conditions: read-out: % Activity Remaining
T3 sequence (Q9NWZ3 1-460): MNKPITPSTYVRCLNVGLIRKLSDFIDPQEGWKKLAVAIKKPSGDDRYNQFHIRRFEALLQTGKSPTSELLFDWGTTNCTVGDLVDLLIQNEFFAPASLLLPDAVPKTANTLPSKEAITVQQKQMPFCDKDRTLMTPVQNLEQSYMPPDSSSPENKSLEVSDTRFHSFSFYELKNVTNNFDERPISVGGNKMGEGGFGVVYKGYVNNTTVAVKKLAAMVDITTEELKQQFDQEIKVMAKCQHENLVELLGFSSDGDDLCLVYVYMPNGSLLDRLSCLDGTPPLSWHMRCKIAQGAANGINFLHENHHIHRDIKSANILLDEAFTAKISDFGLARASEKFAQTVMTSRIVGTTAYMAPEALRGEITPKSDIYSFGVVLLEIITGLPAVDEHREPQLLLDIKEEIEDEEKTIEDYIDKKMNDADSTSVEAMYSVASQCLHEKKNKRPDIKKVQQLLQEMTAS
Excerpt: as §1

Src = Src (Homo sapiens, UniProt P12931); conditions: read-out: % Activity Remaining
Chain of Src (P12931 whole entry): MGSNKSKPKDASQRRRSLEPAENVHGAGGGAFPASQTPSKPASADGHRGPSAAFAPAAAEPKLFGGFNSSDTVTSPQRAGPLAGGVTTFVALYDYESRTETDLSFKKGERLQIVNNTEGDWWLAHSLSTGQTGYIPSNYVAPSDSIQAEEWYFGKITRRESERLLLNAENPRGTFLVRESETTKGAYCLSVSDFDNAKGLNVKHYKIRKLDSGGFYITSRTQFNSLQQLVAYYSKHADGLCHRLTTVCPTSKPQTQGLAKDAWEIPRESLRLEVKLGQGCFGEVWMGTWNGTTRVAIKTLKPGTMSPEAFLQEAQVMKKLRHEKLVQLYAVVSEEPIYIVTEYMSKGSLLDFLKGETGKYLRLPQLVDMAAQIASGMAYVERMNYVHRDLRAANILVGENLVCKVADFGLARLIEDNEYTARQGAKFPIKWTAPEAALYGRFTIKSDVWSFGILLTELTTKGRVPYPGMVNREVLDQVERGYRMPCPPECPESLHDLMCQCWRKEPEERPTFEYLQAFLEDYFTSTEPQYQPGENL
Excerpt: as §1

SmMLCK = SmMLCK (Homo sapiens, UniProt Q15746)
Chain of SmMLCK (Q15746 923-1914): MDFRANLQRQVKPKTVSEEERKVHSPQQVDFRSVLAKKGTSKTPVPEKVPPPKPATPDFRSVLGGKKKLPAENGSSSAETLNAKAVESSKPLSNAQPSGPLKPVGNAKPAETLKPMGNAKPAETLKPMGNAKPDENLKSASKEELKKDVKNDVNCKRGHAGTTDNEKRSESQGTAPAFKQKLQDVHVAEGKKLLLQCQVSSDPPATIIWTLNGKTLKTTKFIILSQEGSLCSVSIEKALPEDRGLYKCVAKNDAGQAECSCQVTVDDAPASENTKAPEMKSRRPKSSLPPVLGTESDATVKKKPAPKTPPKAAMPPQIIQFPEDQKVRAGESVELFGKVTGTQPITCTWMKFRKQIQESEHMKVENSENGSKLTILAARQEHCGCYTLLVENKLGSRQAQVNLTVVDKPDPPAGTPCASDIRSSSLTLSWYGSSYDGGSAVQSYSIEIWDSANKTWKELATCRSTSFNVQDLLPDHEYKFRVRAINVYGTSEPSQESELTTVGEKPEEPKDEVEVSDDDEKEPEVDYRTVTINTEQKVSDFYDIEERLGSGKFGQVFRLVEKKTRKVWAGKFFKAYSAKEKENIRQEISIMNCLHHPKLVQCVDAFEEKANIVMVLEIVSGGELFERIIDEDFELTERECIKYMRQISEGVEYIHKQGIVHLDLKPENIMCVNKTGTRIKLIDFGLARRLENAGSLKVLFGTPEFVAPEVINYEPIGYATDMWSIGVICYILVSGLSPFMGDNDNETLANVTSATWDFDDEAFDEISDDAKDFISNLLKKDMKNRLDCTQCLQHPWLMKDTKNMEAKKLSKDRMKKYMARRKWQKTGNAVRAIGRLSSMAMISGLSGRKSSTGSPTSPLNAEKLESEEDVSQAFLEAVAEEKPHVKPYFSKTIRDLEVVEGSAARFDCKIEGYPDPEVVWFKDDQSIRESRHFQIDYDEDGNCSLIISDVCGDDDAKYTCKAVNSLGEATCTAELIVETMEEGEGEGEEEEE
Excerpt: as §1

CAMK1 = CAMK1 (Homo sapiens, UniProt Q14012); conditions: read-out: % Activity Remaining
Chain of CAMK1 (Q14012 whole entry): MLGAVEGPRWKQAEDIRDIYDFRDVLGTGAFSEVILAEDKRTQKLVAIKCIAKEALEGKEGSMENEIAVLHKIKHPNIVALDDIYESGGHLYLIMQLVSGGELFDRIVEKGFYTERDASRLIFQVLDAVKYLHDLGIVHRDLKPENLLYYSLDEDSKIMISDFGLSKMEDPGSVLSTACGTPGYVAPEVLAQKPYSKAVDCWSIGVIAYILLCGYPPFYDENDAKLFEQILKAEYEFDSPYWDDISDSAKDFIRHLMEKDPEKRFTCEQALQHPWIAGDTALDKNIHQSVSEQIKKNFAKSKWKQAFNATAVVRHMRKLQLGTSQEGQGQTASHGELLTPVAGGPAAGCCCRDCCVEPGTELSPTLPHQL
Excerpt: as §1

Row | Compound | remaining activity at 1 µM (DYRK1A; 1 µM) | remaining activity at 1 µM (PKD1; 1 µM) | remaining activity at 1 µM (PRK2; 1 µM) | remaining activity at 1 µM (MKK1; 1 µM) | remaining activity at 1 µM (ABL; 1 µM) | remaining activity at 1 µM (SRPK1; 1 µM) | remaining activity at 1 µM (ERK8; 1 µM) | remaining activity at 1 µM (MARK3; 1 µM) | remaining activity at 1 µM (IRAK4; 1 µM) | remaining activity at 1 µM (Src; 1 µM) | remaining activity at 1 µM (SmMLCK) | remaining activity at 1 µM (CAMK1; 1 µM) | remaining activity at 1 µM (DYRK1A) | remaining activity at 1 µM (PKD1) | remaining activity at 1 µM (PRK2) | remaining activity at 1 µM (MKK1) | remaining activity at 1 µM (ABL) | remaining activity at 1 µM (SRPK1) | remaining activity at 1 µM (ERK8) | remaining activity at 1 µM (MARK3) | further results
1 | Cc1ccc(F)c(S(=O)(=O)Nc2ccc(-c3nc(OC[C@H]4CN(CCCCCCOCCOCCOCC(=O)N[C@H](C(=O)N5C[C@H](O)C[C@H]5C(=O)NCc5ccc(-c6scnc6C)cc5)C(C)(C)C)CCO4)c4cn[nH]c4n3)cc2)c1 [SGK3-PROTAC1] | 105% | 94% | 105% | 106% | 111% | 96% | 94% | 98% | 114% | 83% | 53% | 86% |  |  |  |  |  |  |  |  | 
2 | COc1ccc(Cl)c(S(=O)(=O)Nc2ccc(-c3nc(OC[C@H]4CNCCO4)c4c(C)n[nH]c4n3)cc2)c1 [290-R, reference compound] |  |  |  |  |  |  |  |  |  |  | 23% |  | 103% | 15% | 76% | 66% | 88% | 94% | 18% | 89% | remaining activity at 1 µM (IRAK4): 74%; remaining activity at 1 µM (Src): 104%; remaining activity at 1 µM (CAMK1): 3%
3 | Cc1ccc(F)c(S(=O)(=O)Nc2ccc(-c3nc(OC[C@H]4CN(CCCCCCOCCOCCOCC(=O)N[C@H](C(=O)N5C[C@@H](O)C[C@H]5C(=O)NCc5ccc(-c6scnc6C)cc5)C(C)(C)C)CCO4)c4cn[nH]c4n3)cc2)c1 [cisSGK3-PROTAC1] | 99% | 92% | 101% | 102% | 112% | 104% | 86% | 109% | 98% | 87% | 71% | 105% |  |  |  |  |  |  |  |  | 
4 | Cc1ccc(F)c(S(=O)(=O)Nc2ccc(-c3nc(OC[C@H]4CNCCO4)c4cn[nH]c4n3)cc2)c1 [308-R, reference compound] |  |  |  |  |  |  |  |  |  |  | 74% |  | 81% | 37% | 82% | 62% | 96% | 119% | 49% | 103% | remaining activity at 1 µM (IRAK4): 105%; remaining activity at 1 µM (Src): 131%; remaining activity at 1 µM (CAMK1): 22%
